Results taken from ChEMBL document CHEMBL4622861, “Synthesis and biological evaluation of 6-nitro-1,2,4-triazoloazines containing polyphenol fragments possessing antioxidant and antiviral activity” (Bioorg Med Chem Lett, 2020).
The source made the active and inactive calls. The rule behind the calls is not given here.

Tests used:
[1] = Cytotoxicity against MDCK cells; type: cell-based, Canis lupus familiaris; settings: dog
[2] = test system: M2 proton channel of Influenza A virus; experiment: Selectivity index, ratio of CC50 for MDCK cells to IC50 for M2 proton channel in Influenza A virus (A/Puerto Rico/8/34(H1N1) ) infected in MDCK cells assessed as inhibition of viral infection; type: toxicity, cell-based; settings: dog, read-out: Ratio CC50/IC50
[3] = Antioxidant activity in K3[Fe(CN)6]/K4[Fe(CN)6] system by potentiometric method; type: functional
[4] = Inhibition of M2 proton channel in Influenza A virus (A/Puerto Rico/8/34(H1N1)) infected in MDCK cells assessed as inhibition of viral infection; type: cell-based, Influenza A virus (A/Puerto Rico/8/1934(H1N1))
Influenza A virus [5] = experiment: Antiviral activity against Influenza A virus (A/Puerto Rico/8/34(H1N1)) infected in MDCK cells assessed as reduction in viral titer at 100 uM measured at 0 to 8 hrs post-infection; type: functional, organism-based; settings: A/Puerto Rico/8/1934(H1N1)
Influenza A virus [6] = experiment: Antiviral activity against Influenza A virus (A/Puerto Rico/8/34(H1N1)) infected in MDCK cells assessed as reduction in viral titer at 50 uM measured after 4 hrs post-infection; type: functional, organism-based; settings: A/Puerto Rico/8/1934(H1N1)
[7] = target: Hemagglutinin (Influenza A virus (A/Puerto Rico/8/1934(H1N1))) (UniProt P03452); experiment: Inhibition of Hemagglutinin in Influenza A virus (A/Puerto Rico/8/34(H1N1)) assessed as reduction in virus-induced agglutination of chicken erythrocytes at 100 uM
Sequence of Hemagglutinin (Influenza A virus (A/Puerto Rico/8/1934(H1N1))) (P03452 whole entry): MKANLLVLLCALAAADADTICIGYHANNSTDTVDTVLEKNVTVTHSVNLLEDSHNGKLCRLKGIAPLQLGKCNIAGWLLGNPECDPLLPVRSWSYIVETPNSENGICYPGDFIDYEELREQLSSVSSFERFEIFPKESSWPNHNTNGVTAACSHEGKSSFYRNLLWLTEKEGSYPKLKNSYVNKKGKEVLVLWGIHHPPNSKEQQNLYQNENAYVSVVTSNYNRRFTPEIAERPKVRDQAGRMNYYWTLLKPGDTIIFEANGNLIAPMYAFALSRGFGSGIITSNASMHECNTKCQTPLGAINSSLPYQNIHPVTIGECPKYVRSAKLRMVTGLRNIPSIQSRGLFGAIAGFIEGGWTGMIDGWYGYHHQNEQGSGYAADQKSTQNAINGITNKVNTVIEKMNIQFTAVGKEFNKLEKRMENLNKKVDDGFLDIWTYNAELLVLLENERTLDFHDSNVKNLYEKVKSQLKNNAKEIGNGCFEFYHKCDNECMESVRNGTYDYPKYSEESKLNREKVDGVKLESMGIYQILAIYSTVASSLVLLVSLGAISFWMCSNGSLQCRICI

Influenza A virus [8] = experiment: Antiviral activity against Influenza A virus (A/Puerto Rico/8/34(H1N1)) infected in MDCK cells assessed as reduction in viral titer at 100 uM measured at 0 to 2 hrs post-infection; type: functional, organism-based; settings: A/Puerto Rico/8/1934(H1N1)
Influenza A virus [9] = experiment: Antiviral activity against Influenza A virus (A/Puerto Rico/8/34(H1N1)) infected in MDCK cells assessed as reduction in viral titer at 50 uM measured at 0 to 2 hrs post-infection; type: functional, organism-based; settings: A/Puerto Rico/8/1934(H1N1)
Influenza A virus [10] = experiment: Antiviral activity against Influenza A virus (A/Puerto Rico/8/34(H1N1)) infected in MDCK cells assessed as reduction in viral titer at 100 uM measured after 4 hrs post-infection; type: functional, organism-based; settings: A/Puerto Rico/8/1934(H1N1)
Influenza A virus [11] = experiment: Antiviral activity against Influenza A virus (A/Puerto Rico/8/34(H1N1)) infected in MDCK cells assessed as reduction in viral titer at 50 uM measured at 0 to 8 hrs post-infection; type: functional, organism-based; settings: A/Puerto Rico/8/1934(H1N1)
[12] = target: Hemagglutinin (Influenza A virus (A/Puerto Rico/8/1934(H1N1))) (UniProt P03452); experiment: Inhibition of Hemagglutinin in Influenza A virus (A/Puerto Rico/8/34(H1N1)) assessed as reduction in virus-induced agglutination of chicken erythrocytes at 50 uM

Structure (SMILES)	CC50 [1] [µM]	selectivity ratio [2]	IC50 [4] [µM]	also measured
CSc1nc2n(n1)C(c1ccc(O)c(O)c1O)C([N+](=O)[O-])=NN2 (configuration not stated)	196	8	26	Activity [3]: inactive
O=[N+]([O-])C1=NNc2nc(C(F)(F)F)nn2C1O (configuration not stated)	40	4	11	–
O=[N+]([O-])C1=NNc2ncnn2C1c1ccc(O)cc1O (configuration not stated)	90	3	34	Activity [3]: inactive
CSc1nc2n(n1)C(O)C([N+](=O)[O-])=NN2 (configuration not stated)	99	7	15	–
O=[N+]([O-])C1=CNc2nc(-c3ccco3)nn2C1c1ccc(O)c(O)c1 (configuration not stated)	> 1200	> 12	101	–
CCC(CC)O[C@@H]1C=C(C(=O)O)C[C@H](N)[C@H]1NC(C)=O [OSELTAMIVIR CARBOXYLATE]	66	5	13	–
O=[N+]([O-])C1=NNc2nc(C(F)(F)F)nn2C1c1ccc(O)c(O)c1 (configuration not stated)	183	2	> 120	–
O=[N+]([O-])C1=CNc2nc(C(F)(F)F)nn2C1c1ccc(O)c(O)c1 (configuration not stated)	1200	57	21	–
O=[N+]([O-])C1=NNc2ncnn2C1c1ccc(O)c(O)c1 (configuration not stated)	> 1640	2	1090	–
O=[N+]([O-])C1=CNc2nc(C(F)(F)F)nn2C1c1c(O)cc(O)cc1O (configuration not stated)	838	32	27	–
O=[N+]([O-])C1=CNc2ncnn2C1c1ccc(O)c(O)c1O (configuration not stated)	405	1	595	–
O=[N+]([O-])C1=CNc2nc(C(F)(F)F)nn2C1c1ccc(O)cc1O (configuration not stated)	258	43	6	–
O=[N+]([O-])C1=CNc2ncnn2C1c1ccc(O)c(O)c1 (configuration not stated)	368	9	42	–
O=[N+]([O-])C1=CNc2ncnn2C1c1c(O)cc(O)cc1O (configuration not stated)	> 1030	> 51	20	Activity (Influenza A virus [5]): Active; Activity (Influenza A virus [6]): Active; inhibition [7]: Active; Activity (Influenza A virus [8]): Active
O=[N+]([O-])C1=CNc2nc(-c3ccco3)nn2C1	108	13	9	–
CSc1nc2n(n1)C(c1ccc(O)cc1O)C([N+](=O)[O-])=NN2 (configuration not stated)	201	11	18	Activity [3]: inactive

Structure (SMILES)	CC50 [1] [µM]	selectivity ratio [2]	IC50 [4] [µM]	also measured
O=[N+]([O-])C1=NNc2nc(C(F)(F)F)nn2C1c1ccc(O)cc1O (configuration not stated)	108	3	33	–
CSc1nc2n(n1)C(c1ccc(O)c(O)c1)C([N+](=O)[O-])=NN2 (configuration not stated)	362	8	44	Activity (Influenza A virus [9]): Active; Activity (Influenza A virus [10]): Active; Activity (Influenza A virus [11]): Active; inhibition [12]: Active
O=[N+]([O-])C1=CNc2nc(-c3ccco3)nn2C1c1c(O)cc(O)cc1O (configuration not stated)	280	4	70	–
O=[N+]([O-])C1=CNc2nc(C(F)(F)F)nn2C1c1ccc(O)c(O)c1O (configuration not stated)	373	8	47	–
O=[N+]([O-])C1=NNc2nc(C(F)(F)F)nn2C1c1c(O)cc(O)cc1O (configuration not stated)	252	9	27	–
O=[N+]([O-])C1=NNc2ncnn2C1O (configuration not stated)	87	2	> 36	–
O=[N+]([O-])C1=NNc2ncnn2C1c1ccc(O)c(O)c1O (configuration not stated)	228	3	86	–
O=[N+]([O-])C1=CNc2nc(C(F)(F)F)nn2C1O (configuration not stated)	33	3	11	–
O=[N+]([O-])C1=NNc2nc(C(F)(F)F)nn2C1c1ccc(O)c(O)c1O (configuration not stated)	67	7	10	–
CSc1nc2n(n1)C(c1c(O)cc(O)cc1O)C([N+](=O)[O-])=NN2 (configuration not stated)	877	39	23	–
O=[N+]([O-])C1=CNc2ncnn2C1c1ccc(O)cc1O (configuration not stated)	> 1090	> 7	167	–
CC(N)C12CC3CC(CC(C3)C1)C2 (configuration not stated) [RIMANTADINE]	> 200	> 667	0.3	–
O=[N+]([O-])C1=CNc2ncnn2C1O (configuration not stated)	123	4	28	–
O=[N+]([O-])C1=CNc2nc(-c3ccco3)nn2C1c1ccc(O)c(O)c1O (configuration not stated)	317	3	97	–
O=[N+]([O-])C1=CNc2nc(-c3ccco3)nn2C1c1ccc(O)cc1O (configuration not stated)	119	14	9	–
O=[N+]([O-])C1=NNc2ncnn2C1c1c(O)cc(O)cc1O (configuration not stated)	119	5	26	–
